Values quoted from earlier work in US20220040156A1, “COMPOSITIONS, DEVICES AND METHODS FOR TREATING OBSESSIVE-COMPULSIVE DISORDER” (CENTRE FOR DIGESTIVE DISEASES, priority 2017, published 2022).

Test system: children with autism / autistic symptoms
Conditions: reports of Sandler et al. 2000, Rodakis 2015 and unreferenced observations

Compound | effect on behavioural changes / autistic symptoms
CN[C@H](CC(C)C)C(=O)N[C@H]1C(=O)N[C@@H](CC(N)=O)C(=O)N[C@H]2C(=O)N[C@H]3C(=O)N[C@H](C(=O)N[C@H](C(=O)O)c4cc(O)cc(O)c4-c4cc3ccc4O)[C@H](O)c3ccc(c(Cl)c3)Oc3cc2cc(c3O[C@@H]2O[C@H](CO)[C@@H](O)[C@H](O)[C@H]2O[C@H]2C[C@](C)(N)[C@H](O)[C@H](C)O2)Oc2ccc(cc2Cl)[C@H]1O [vancomycin] | reversal of behavioural changes and progress to normality within a few weeks
CC1(C)S[C@@H]2[C@H](NC(=O)[C@H](N)c3ccc(O)cc3)C(=O)N2[C@H]1C(=O)O [amoxycillin] | reversed almost completely
